Measurements as given in paper PMC9560169, “The novel visual cycle inhibitor (±)-RPE65-61 protects retinal photoreceptors from light-induced degeneration” (PLoS ONE, 2022).

Biological target: T1, RPE65 (Gallus gallus, UniProt Q9YGX2)
T1 construct: purified chicken recombinant RPE65
T1 sequence (Q9YGX2 1-533): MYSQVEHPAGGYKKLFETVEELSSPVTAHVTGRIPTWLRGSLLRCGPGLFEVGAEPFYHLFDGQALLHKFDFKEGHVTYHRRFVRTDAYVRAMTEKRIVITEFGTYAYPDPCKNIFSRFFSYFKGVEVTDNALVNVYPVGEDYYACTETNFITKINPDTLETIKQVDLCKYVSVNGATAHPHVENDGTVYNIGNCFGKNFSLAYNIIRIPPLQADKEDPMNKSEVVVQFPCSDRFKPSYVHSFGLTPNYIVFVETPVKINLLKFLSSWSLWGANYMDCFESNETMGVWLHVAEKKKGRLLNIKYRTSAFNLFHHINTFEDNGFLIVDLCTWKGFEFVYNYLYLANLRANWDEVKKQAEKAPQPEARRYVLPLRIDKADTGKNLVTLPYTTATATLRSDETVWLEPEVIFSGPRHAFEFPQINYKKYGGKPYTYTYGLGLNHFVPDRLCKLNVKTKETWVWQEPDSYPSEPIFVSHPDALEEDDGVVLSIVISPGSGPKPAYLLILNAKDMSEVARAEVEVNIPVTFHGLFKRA
Test: liposome-based isomerohydrolase assay with all-trans-retinyl palmitate, HPLC of 11-cis-retinol, Lineweaver-Burk
Type: biochemical

SMILES: N=S(=O)(CCN)c1cccc(OCC2CCCCC2)c1 (racemic) [(±)-9, (±)-(2-aminoethyl)(3-(cyclohexylmethoxy)phenyl)(imino)-ƛ^6-sulfanone]
- Ki: 0.119 ± 0.011 µM
